Experiments:
[1] = test system: platelet aggregation induced by PAF; assay: Inhibition of platelet aggregation induced by PAF (rabbit platelet rich plasma, Born nephelometric technique); assay type: cell-based, male New Zealand albino rabbits; details: Oryctolagus cuniculus, rabbit PRP, 3×10^5 platelets/mm^3, PAF (C18) 15 nM
Procedure: Inhibition of platelet aggregation induced by PAF.
Blood is obtained by cardiac puncture of male New Zealand albino rabbits (b.w. 2-2.5 Kg) and coagulation is prevented by adding 1 part of 3.16% sodium citrate dihydrate in 9 parts of blood. Platelet rich plasma (PRP) is prepared by centrifuging the blood at 250×g for 10 min. at 4° C. and then it is diluted with platelet poor plasma (PPP) obtained by further centrifuging at 3000×g for 10 min. The platelet count is adjusted to 3×10^5 /mm^3. Platelet aggregation induced by PAF (C18, prepared in our laboratory) (15 nM) is determined by the Born nephelometric technique (J. Physiol., 1962, 162, 67) using an aggregometer Chrono-log 500. The activities of the inhibitors are expressed as the IC50 value, that is to say the concentration of the drug needed to inhibit platelet aggregation by 50%.

[2] = test system: hypotensive effect induced by PAF in normotense rats; assay: Inhibition of the hypotensive effect induced by PAF in normotense rats; assay type: in vivo, male Sprage Dawley rats; details: Rattus norvegicus, iv, 0.05 h; i.v., test compound via femoral vein 3 min. before PAF 0.5 mcg/Kg i.v.; anaesthetized rats; read-out: ID50 (inhibition of PAF-induced hypotension)
Procedure: Inhibition of the hypotensive effect induced by PAF in normotense rats.
Male Sprage Dawley rats (b.w. 180-220 g) anaesthetized with sodium pentobarbital (50 mg/Kg, i.p. 1 mL/100 g) are used. In order to measure the arterial pressure, a polyethylene catheter is introduced into the carotid artery. The arterial pressure is recorded with the help of a transducer coupled to a R611 Beckman polygraph. The test compounds are administered through the femoral vein 3 min. before PAF injection (0.5 mcg/Kg, i.v.). Control animals receive only the vehicle.

`Cc1ncccc1C(C#N)N1CCN(C(=O)Cc2ccc(OCc3ccc4ccccc4n3)cc2)CC1` (stereo not drawn) [Compound 1, 1-[p-(2-Quinolylmethoxy)phenylacetyl]-4-[(2-methyl-3-pyridyl)cyanomethyl]piperazine] was tested, and the IC50 [1] was 6700 nM and the ED50 [2] was 0.69 mg/kg.
Molecule `Cc1ncccc1C(C#N)N1CCN(C(=O)CNC(c2ccccc2)c2ccc(OCc3ccc4ccccc4n3)cc2)CC1` (stereo not drawn) [Compound 2] has an IC50 [1] of 1800 nM and an ED50 [2] of 0.057 mg/kg.
With `Cc1ncccc1C(C#N)N1CCN(C(=O)CC(NC(=O)Cc2ccc(OCc3ccc4ccccc4n3)cc2)c2ccccc2)CC1` (stereo not drawn) [Compound 3, 1-[3-[N-[p-(2-quinolylmethoxy)phenylacetyl]]amino-3-phenylpropionyl]-4-[(2-methyl-3-pyridiyl)cyanomethyl]piperazine] the IC50 [1] was 80 nM and the ED50 [2] was 0.036 mg/kg.
In the case of `Cc1ncccc1C(C#N)N1CCN(C(=O)CC(NC(=O)Cc2cccc(OCc3ccc4ccccc4n3)c2)c2ccccc2)CC1` (stereo not drawn) [Compound 4, 1-[3-[N-[3-(2-quinolylmethoxy)phenylacetyl]]amino-3-phenylpropionyl]-4-[(2-methyl-3-pyridyl)cyanomethyl]piperazine], the IC50 [1] is reported as 12 nM and the ED50 [2] is reported as 0.041 mg/kg.
For `Cc1ncccc1C(C#N)N1CCN(C(=O)CC(NC(=O)c2ccc(OCc3ccc4ccccc4n3)cc2)c2ccccc2)CC1` (stereo not drawn) [Compound 5, 1-[3-[N-[p-(2-quinolylmethoxy)benzoyl]]amino-3-phenylpropionyl]-4-[(2-methyl-3-pyridyl)cyanomethyl]piperazine], the IC50 [1] was 680 nM and the ED50 [2] was 0.21 mg/kg.
Work on `Cc1ncccc1C(C#N)N1CCN(C(=O)CC(NC(=O)c2cccc(OCc3ccc4ccccc4n3)c2)c2ccccc2)CC1` (stereo not drawn) [Compound 6, 1-[3-[N-[3-(2-quinolylmethoxy)benzoyl]]amino-3-phenylpropionyl]-4-[(2-methyl-3-pyridyl)cyanomethyl]piperazine] yielded an IC50 [1] of 740 nM and an ED50 [2] of 0.16 mg/kg.
`N#CC(c1cccnc1)C1CCN(C(=O)CC(NC(=O)c2ccc(OCc3ccc4ccccc4n3)cc2)c2ccccc2)CC1` (stereo not drawn) [Compound 7, 1-[3-[N-[p-(2-quinolylmethoxy)benzoyl]]amino-3-phenylpropionyl]-4-(3-pyridylcyanomethyl)piperidine] gave an IC50 [1] of 55 nM and an ED50 [2] of 0.25 mg/kg.
`N#CC(c1cccnc1)C1CCN(C(=O)[C@H](NC(=O)Cc2ccc(OCc3ccc4ccccc4n3)cc2)c2ccccc2)CC1` (stereo partly drawn) [Compound 10, 1-[N-[p-(2-quinolylmethoxy)phenylacetyl]-D-2-phenylglycinyl]-4-(3-pyridylcyanomethyl)piperidine] was tested, and the IC50 [1] was 550 nM and the ED50 [2] was 0.12 mg/kg.
With `N#CC(c1cccnc1)C1CCN(C(=O)[C@H](NC(=O)c2cccc(OCc3ccc4ccccc4n3)c2)c2ccccc2)CC1` (stereo partly drawn) [Compound 13, 1-[N-[3-(2-quinolylmethoxy)benzoyl]-D-2-phenylglycinyl]-4-(3-pyridylcyanomethyl)piperidine] the IC50 [1] was 660 nM and the ED50 [2] was 0.21 mg/kg.

Source: patent publication US5420131A, “Cyanomethylpyridine derivatives” (J. Uriach & Cia, S.A., priority 1993, dated 1995)
